This passage reports CETSA results from paper PMC11909904 (Cardiovascular Diabetology, 2025).

This assay addresses T1, GPR30 (Rattus norvegicus, UniProt O08878).
T1 sequence (O08878 1-375): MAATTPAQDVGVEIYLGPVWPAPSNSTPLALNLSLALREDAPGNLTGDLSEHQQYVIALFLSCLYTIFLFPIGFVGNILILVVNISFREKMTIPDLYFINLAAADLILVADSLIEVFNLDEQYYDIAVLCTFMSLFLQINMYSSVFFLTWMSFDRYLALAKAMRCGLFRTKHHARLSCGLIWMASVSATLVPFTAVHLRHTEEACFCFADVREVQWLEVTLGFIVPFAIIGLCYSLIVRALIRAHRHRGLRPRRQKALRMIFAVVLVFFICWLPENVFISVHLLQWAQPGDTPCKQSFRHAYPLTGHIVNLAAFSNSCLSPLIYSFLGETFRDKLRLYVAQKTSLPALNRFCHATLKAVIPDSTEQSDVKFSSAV
In words: CETSA in intact RVECs and lysates. The class given is biochemical. The following applies: 30 µM Rd (CETSA).

Take `CC(C)=CCC[C@](C)(O[C@@H]1O[C@H](CO)[C@@H](O)[C@H](O)[C@H]1O)[C@H]1CC[C@]2(C)[C@@H]1[C@H](O)C[C@@H]1[C@@]3(C)CC[C@H](O[C@@H]4O[C@H](CO)[C@@H](O)[C@H](O)[C@H]4O[C@@H]4O[C@H](CO)[C@@H](O)[C@H](O)[C@H]4O)C(C)(C)[C@@H]3CC[C@]12C` [Rd, Ginsenoside Rd]: the CETSA result is “the incubation with Rd stabilized GPR30 in heat-denatured intact RVECs and cell lysates”.
